In patent US9469597B2, “(Hetero)aryl cyclopropylamine compounds as LSD1 inhibitors” (ORYZON GENOMICS, S.A., priority 2011, dated 2016):
Structures can show the parent of a compound that is named as a salt.

What was measured:
[1] = molecular target: Human recombinant monoamine oxidase MAO-A (Homo sapiens (Human), UniProt P21397); experiment: Monoamine oxidase assay (kynuramine to 4-hydroxyquinoline fluorescence), MAO-A; type: biochemical; details: for Ki: Table 1, term Ki value used as designation for the IC50 value; for IC50: Table 2
Sequence of Human recombinant monoamine oxidase MAO-A (P21397 whole entry): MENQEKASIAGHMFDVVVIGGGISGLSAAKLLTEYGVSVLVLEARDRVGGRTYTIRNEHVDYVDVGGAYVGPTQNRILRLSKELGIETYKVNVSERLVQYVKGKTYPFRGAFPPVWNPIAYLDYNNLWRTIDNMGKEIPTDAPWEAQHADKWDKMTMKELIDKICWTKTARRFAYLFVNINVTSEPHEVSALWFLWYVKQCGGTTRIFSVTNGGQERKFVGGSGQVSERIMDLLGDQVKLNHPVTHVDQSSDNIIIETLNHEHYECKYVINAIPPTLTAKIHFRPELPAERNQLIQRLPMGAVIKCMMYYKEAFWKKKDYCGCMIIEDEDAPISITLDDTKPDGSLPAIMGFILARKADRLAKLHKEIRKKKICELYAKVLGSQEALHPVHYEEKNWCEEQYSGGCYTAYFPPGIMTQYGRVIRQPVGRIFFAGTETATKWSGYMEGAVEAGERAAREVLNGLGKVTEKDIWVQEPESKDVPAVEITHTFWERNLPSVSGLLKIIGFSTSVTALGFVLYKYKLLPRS
Excerpt: (§1) Human recombinant monoamine oxidase proteins MAO-A and MAO-B were purchased from Sigma Aldrich. MAOs catalyze the oxidative deamination of primary, secondary and tertiary amines. In order to monitor MAO enzymatic activities and/or their inhibition rate by inhibitor(s) of interest, a fluorescence-based (inhibitor)-screening assay was set up. 3-(2-Aminophenyl)-3-oxopropanamine (kynuramine dihydrobromide, Sigma Aldrich), a non fluorescent compound was chosen as a substrate. Kynuramine is a non-specific substrate for both MAO-A and MAO-B activities. While undergoing oxidative deamination by MAO activities, kynuramine is converted into 4-hydroxyquinoline (4-HQ), a resulting fluorescent product.
(§2) The monoamine oxidase activity was estimated by measuring the conversion of kynuramine into 4-hydroxyquinoline. Assays were conducted in 96-well black plates with clear bottom (Corning) in a final volume of 100 μL. The assay buffer was 100 mM HEPES, pH 7.5. Each experiment was performed in duplicate within the same experiment.
Clorgyline and Deprenyl (Sigma Aldrich) was used as a control for specific inhibition of MAO-A and MAO-B respectively.
After leaving the enzyme(s) interacting with the inhibitor, KM of kynuramine was added to each reaction for MAO-B and MAO-A assay respectively, and the reaction was left for 1 hour at 37° C. in the dark. The oxidative deamination of the substrate was stopped by adding 50 μL of NaOH 2N.
(§3) The IC50 values of each inhibitor were calculated with GraphPad Prism Software.

[2] = molecular target: Human recombinant monoamine oxidase MAO-B (Homo sapiens (Human), UniProt P27338); experiment: Monoamine oxidase assay (kynuramine to 4-hydroxyquinoline fluorescence), MAO-B; type: biochemical; details: Table 2
Excerpt: as §1, §2
Clorgyline and Deprenyl (Sigma Aldrich) was used as a control for specific inhibition of MAO-A and MAO-B respectively. […]
as §3

THP-1 cells = experiment: Induction of differentiation of THP-1 leukemia cells (CD11b membrane expression, flow cytometry); type: cell-based, human; details: at 100 nM, 96 h treatment
Protocol: By analyzing the induction of CD11b membrane expression on THP-1 cells we are assessing the ability of LSD1 inhibitors to induce terminal monocytic differentiation of a MLL-AF9 AML cell line. […] They carry t(9;11)(p21;q23) leading to MLL-MLLT3 (MLL-AF9) fusion gene. This cell line can undergo monocytic differentiation upon treatment with the appropriate stimulus. […] In this assay, 150,000 THP-1 cells were seeded in 1 ml of complete culture medium in 6-well tissue culture plates. […] Cells were kept in the presence of test compound for 96 h at a 5% CO2 atmosphere at 37° C. After this treatment period, cells were harvested, washed twice with PBS buffer and placed in a V-bottom 96-well plate. Each treated sample was split in two. […] Percentage of CD11b positive cells, as an indicator of monocytic differentiation, was determined compared to isotype control antibody stained cells. EC50 values were calculated by non-linear regression analysis.

| IC50 [2] [µM] | SMILES | Ki [1] [µM] | IC50 [1] [µM] | CD11b+ cells (THP-1 cells) [% CD11b+ cells at 100 nM] |
| --- | --- | --- | --- | --- |
|  | NC1CCC(N[C@H]2C[C@@H]2c2ccccc2)CC1 (mixture of isomers) [Example 1, N1-((trans)-2-phenylcyclopropyl)cyclohexane-1,4-diamine dihydrochloride] | > 40 | > 100 |  |
|  | NC1CCC(N[C@@H]2C[C@@H]2c2ccccc2)CC1 (relative stereo) [Example 21, N1-((cis)-2-phenylcyclopropyl)cyclohexane-1,4-diamine] |  | 5.23 |  |
|  | N[C@H]1CC[C@@H](N[C@H]2C[C@@H]2c2ccccc2)CC1 [Example 2, (cis)-N1-((1S,2R)-2-phenylcyclopropyl)cyclohexane-1,4-diamine hydrochloride] | > 40 | > 100 |  |
|  | Cl.N[C@H]1CC[C@H](N[C@H]2C[C@@H]2c2ccccc2)CC1 [Example 3, (trans)-N1-((1S,2R)-2-phenylcyclopropyl)cyclohexane-1,4-diamine hydrochloride] | > 40 | > 100 | 13 |
|  | N[C@H]1CC[C@@H](N[C@@H]2C[C@H]2c2ccccc2)CC1 [Example 4, (cis)-N1-((1R,2S)-2-phenylcyclopropyl)cyclohexane-1,4-diamine hydrochloride] | > 40 | > 100 |  |
|  | N[C@H]1CC[C@H](N[C@@H]2C[C@H]2c2ccccc2)CC1 [Example 5, (trans)-N1-((1R,2S)-2-phenylcyclopropyl)cyclohexane-1,4-diamine hydrochloride] |  | > 100 |  |
